The record followed here is patent publication US5136090A, “Biphenyl-5,5'-bis-alkanoic acid derivatives, their production and aldose reductase inhibitors containing the same” (Toyo Jozo Kabushiki Kaisha, priority 1990, dated 1992).

The target of test [1] is T1, partially purified bovine lens aldose reductase (Bos taurus, UniProt P16116).
T1 construct: partially purified bovine lens aldose reductase; from tissue; host or cells: bovine lens
Briefly: Inhibitory activity on aldose reductase enzyme reaction. The settings on record: for inhibition at 0.1 µg/mL: concentration 0.1 μg/ml; for inhibition at 1 µg/mL: concentration 1.0 μg/ml; for inhibition at 0.02 µg/mL: concentration 0.02 μg/ml. In kind it is biochemical. The procedure: The preparation of aldose reductase and the determination of its inhibitory action on enzyme reaction activity were carried out pursuant to the procedures disclosed by Haymann et al. in Journal of Biological Chemistry, 240, 877 (1965).
The sample solution to be examined for inhibitory activity was prepared by dissolving a compound of formula (I) according to the present invention in a small amount of methanol and increasing the volume of the resulting methanol solution by diluting it with distilled water up to tenfold volume. A partially purified bovine lens aldose reductase was used for the assay.
To 2.4 ml of a solution of 5×10^-5 M NADPH dissolved in a 2/15M phosphate buffer solution (pH 6.0), 0.4 ml of the enzyme solution (15 m units/ml) and 0.1 ml of the sample solution to be examined were added and the mixture was introduced into a quartz cell in a photoelectric photometer and subjected to pre-incubation at 37° C. for 4 mins. Then, 0.1 ml of a 0.015M D,L-glyceraldehyde solution was added thereto for initiating the enzyme reaction and the decrease in the optical absorption at 340 nm was measured at 37° C. for 4 mins. The inhibitory activity on aldose reductase was calculated by the following equation: [formula] in which A represents the enzyme reaction rate with addition of the inhibitor and B denotes the enzyme reaction rate without addition of the inhibitor.

For test [2], the system named is Lens. Description: Suppression of sorbitol accumulation in cultured lens. In kind it is cell-based, Wistar rats. The settings on record: rat lens cultured 20 hours with 0.9% glucose; for inhibition at 5 µg/mL: concentration 5 μg/ml; for inhibition at 2.5 µg/mL: concentration 2.5 μg/ml. As to the method: (§1) Lenses and sciatic nerves extirpated from Wistar rats, male, aged 7 weeks, were washed twice with an aseptic buffer solution consisting of 0.3% trisaminomethane, 0.8% NaCl, 0.038% KCl, 0.025% Na2 HPO4 ·12H2 O, 0.1% glucose and 1.85 ml/l of concentrated HCl.
(§2) The lenses and the sciatic nerves were then preincubated for 30 mins. in a culture medium prepared by adding 2 ml of 7.5% NaHCO3 aseptic solution and 5.5 ml of aseptic calf fetus serum to 100 ml of an aseptic culture medium of 0.98% TC Medium 199 (NISSUI Corp.) containing 0.01% of dihydrostreptomycin and 0.01% of benzylpenicillin. Thereafter, the intrinsic culture was effected in a culture medium prepared by adding each sample solution to be examined and 0.9% of glucose to the abovementioned culture medium and permitting culturing to proceed for 20 hours. The incubation was effected at 37° C. in an atmosphere composed of 95% air and 5% CO2.
(§3) After culturing, the cultured samples of lens and sciatic nerve were removed from the culture medium to filter paper and the weight of each of them was measured after the adherent culture solution had been blown off. Then, each of the cultured samples was homogenized with the addition of 1 ml of a cold 8% HClO4 solution and the homogenized mixture was subjected to centrifugation at 10,000 G for 10 mins., whereby a supernatant was obtained. The resulting precipitate was then homogenized again with addition thereto of 0.5 ml of cold 8% HClO4 solution and the homogenized mixture was again subjected to centrifugation in a similar way as above to obtain a further supernatant. This was combined with the previously obtained supernatant and the resulting solution was neutralized with 2N KOH aq. solution and was supplemented with distilled water to a volume of 5 ml. The precipitate formed by neutralization was separated by centrifugation at 3,000 rpm for 10 mins. and the resulting supernatant was employed as the sample for determining the sorbitol content.
(§4) The determination of the sorbitol content in the lens and in the sciatic nerve was carried out in accordance with the method of Bergmeyer in "Methods of Enzymatic Analysis" edited by H. U. Bergmeyer, pp 1323-1326, Academic Press, New York, 1974 and in accordance with the method of Malaon et al. in "Diabetes" 29, 861-864 (1980).
(§5) To 0.5 ml cf the sample solution for determination of sorbitol content obtained as above, 0.9 ml of 0.1M glycine-KOH buffer solution (pH 9.4) containing 1 mM of NAD^+ and 0.1 ml of a solution of sorbitol dehydrogenase of 20 units/ml were added and the resulting mixture was subjected to incubation at 37° C. for 1 hour.
(§6) The content of sorbitol in each tissue was estimated by assuming the increment of the optical absorption at 340 nm to be proportional to the amount of NADH produced by the reaction for the lens and by detecting the fluorescence with an excitation wavelength of 366 nm and a fluorescence wavelength of 425 nm for the sciatic nerve.
(§7) The activity for suppressing accumulation of sorbitol, i.e. the aldose reductase inhibiting activity, was calculated from the determined sorbitol content by the calculation formula [formula] in which A denotes the content of sorbitol per unit weight of the tissue after cultivation with addition of the inhibitor, B denotes the sorbitol content per unit weight of the tissue after cultivation without addition of the inhibitor and C represents the sorbitol content per unit weight of the tissue after cultivation in the medium without addition of glucose and inhibitor.

Test [3] has as its system Sciatic Nerve. Description: Suppression of sorbitol accumulation in cultured sciatic nerve. To be noted: concentration 1.0 μg/ml, rat sciatic nerve cultured 20 hours with 0.9% glucose; for inhibition at 1 µg/mL: Rattus norvegicus, 20 h. In kind it is cell-based, Wistar rats. As to the method:
as §1, §2, §3, §4, §5, §6, §7

`O=C(O)CCc1ccc(O)c(-c2cc(CCC(=O)O)ccc2OCc2ccccc2)c1` [Example 1, 2-benzyloxy-2'-hydroxy-5,5'-bis (2carboxyethyl) biphenyl]: the inhibition (in general, the percentage by which the read-out fell short of the control) at 0.1 µg/mL in test [1] was determined as 60.8%. The inhibition at 1 µg/mL in test [1] came out at 92.8%; in test [3], 64.6%. Testing at 5 µg/mL in test [2] gave an inhibition of 69.9%.
In test [1], `O=C(O)CCc1ccc(O)c(-c2cc(CCC(=O)O)ccc2OCc2ccc(Br)cc2F)c1` [Example 2, 2-(2-fluoro-4-bromobenzyloxy)-2'-hydroxy-5,5'-bis (2-carboxyethyl) biphenyl] showed an inhibition at 0.1 µg/mL of 54% and an inhibition at 1 µg/mL of 89.1%.
In test [1], `O=C(O)CCc1ccc(O)c(-c2cc(CCC(=O)O)ccc2OCC2CCCCC2)c1` [Example 3, 2-cyclohexylmethoxy-2'-hydroxy-5,5'-bis (2-carboxyethyl) biphenyl] came in with an inhibition at 0.1 µg/mL of 73.6% and an inhibition at 1 µg/mL of 91.9%. In test [2], this compound yielded an inhibition at 2.5 µg/mL of 44.7% and an inhibition at 5 µg/mL of 85.2%. In test [3], the inhibition at 1 µg/mL stood at 73.2% and the “Inhibition of sorbitol Accumulation (%) Sciatic Nerve” value is 64.8%.
In test [1], `O=C(O)CCc1ccc(O)c(-c2cc(CCC(=O)O)ccc2OCC2CCCCO2)c1` (stereo not shown) [Example 4, 2-(tetrahydro-2H-pyran-2-yl) methoxy-2'-hydroxy-5,5'-bis (2-carboxyethyl) biphenyl] displayed an inhibition at 0.1 µg/mL of 50.4% and an inhibition at 1 µg/mL of 88.2%.
In test [1], `CCCOc1ccc(CCC(=O)O)cc1-c1cc(CCC(=O)O)ccc1O` [Example 5, 2-propoxy-2'-hydroxy-5,5'-bis (2carboxyethyl) biphenyl] yielded an inhibition at 0.1 µg/mL of 73.6% and an inhibition at 1 µg/mL of 90%. In addition, in test [2], the inhibition at 2.5 µg/mL was 32.7% and 5 µg/mL produced 79.2% inhibition. In test [3], the inhibition at 1 µg/mL came out at 73.3% and the “Inhibition of sorbitol Accumulation (%) Sciatic Nerve” value came to 73.8%.
With `CCCCOc1ccc(CCC(=O)O)cc1-c1cc(CCC(=O)O)ccc1O` [Example 6, 2-butoxy-2'-hydroxy-5,5'-bis (2-carboxyethyl) biphenyl], in test [1], the inhibition at 0.1 µg/mL worked out at 58.6% and the inhibition at 1 µg/mL was 90%.
The matching figures for `CCCCCOc1ccc(CCC(=O)O)cc1-c1cc(CCC(=O)O)ccc1O` [Example 7, 2-pentyloxy-2'-hydroxy-5,5'-bis (2carboxyethyl) biphenyl]: 56.4% and 90.9%.
For `CCCCCCOc1ccc(CCC(=O)O)cc1-c1cc(CCC(=O)O)ccc1O` [Example 8, 2-hexyloxy-2'-hydroxy-5,5'-bis (2carboxyethyl) biphenyl] the same measures were 58.6% and 91.9%.
In test [1], `CCCCCCCCCCCOc1ccc(CCC(=O)O)cc1-c1cc(CCC(=O)O)ccc1O` [Example 11, 2-undecyloxy-2'-hydroxy-5,5'-bis (2-carboxyethyl) biphenyl] had an inhibition at 0.1 µg/mL of 81.5% and an inhibition at 1 µg/mL of 92.8%. This compound had an inhibition at 1 µg/mL in test [3] of 34.7%.
In test [1], `O=C(O)CCCOc1ccc(CCC(=O)O)cc1-c1cc(CCC(=O)O)ccc1O` [Example 13, 2-(3-carboxypropoxy)-2'-hydroxy-5, 5'-bis (2-carboxyethyl) biphenyl] displayed an inhibition at 0.1 µg/mL of 60.6% and an inhibition at 1 µg/mL of 95.2%.
Turning to `O=C(O)CCc1ccc(O)c(-c2cc(CCC(=O)O)ccc2OCCc2ccccc2)c1` [Example 14, 2-phenethyloxy-2'-hydroxy-5, 5'-bis (2-carboxyethyl) biphenyl], in test [1], testing at 0.1 µg/mL gave an inhibition of 52.4% and the inhibition at 1 µg/mL was found to be 90.5%. The compound further gave an inhibition at 1 µg/mL in test [3] of 62.4%.
The matching figures for `O=C(O)CCc1ccc(O)c(-c2cc(CCC(=O)O)ccc2OC2CCCCC2)c1` [Example 15, 2-cyclohexyloxy-2'-hydroxy-5, 5'-bis (2-carboxyethyl) biphenyl]: 47.6%, 89.6% and 43.2%.
In test [1], `O=C(O)CCCc1ccc(O)c(-c2cc(CCCC(=O)O)ccc2OCc2ccccc2)c1` [Example 18, 2-benzyloxy-2'-hydroxy-5,5'-bis (3-carboxypropyl) biphenyl] gave an inhibition at 0.02 µg/mL of 22% and an inhibition at 0.1 µg/mL of 60.6%.
In test [1], `O=C(O)CCCc1ccc(O)c(-c2cc(CCCC(=O)O)ccc2OCc2ccc(Br)cc2F)c1` [Example 19, 2-(2-fluoro-4-bromobenzyloxy)-2'-hydroxy-5, 5'-bis (3-carboxypropyl) biphenyl] yielded an inhibition at 0.02 µg/mL of 23.8% and an inhibition at 0.1 µg/mL of 62.6%.
In test [1], `O=C(O)CCCc1ccc(O)c(-c2cc(CCCC(=O)O)ccc2OCC2CCCCC2)c1` [Example 20, 2-cyclohexylmethoxy-2'-hydroxy-5, 5'-bis (3-carboxypropyl) biphenyl] registered an inhibition at 0.02 µg/mL of 18.7% and an inhibition at 0.1 µg/mL of 73.1%. The compound further displayed an inhibition at 1 µg/mL in test [3] of 51.5%.
Take `CCOc1ccc(CCCC(=O)O)cc1-c1cc(CCCC(=O)O)ccc1O` [Example 22, 2-ethoxy-2'-hydroxy-5,5'-bis (3-carboxypropyl) biphenyl]: in test [1], the inhibition at 0.02 µg/mL stood at 27.2% and 0.1 µg/mL produced 63.9% inhibition.
In the case of `CCCCOc1ccc(CCCC(=O)O)cc1-c1cc(CCCC(=O)O)ccc1O` [Example 24, 2-butoxy-2'-hydroxy-5,5'-bis (3-carboxypropyl) biphenyl], in test [1], at 0.02 µg/mL the inhibition was 25.6% and the inhibition at 0.1 µg/mL is 62.6%.
In test [1], `CCCCCCCOc1ccc(CCCC(=O)O)cc1-c1cc(CCCC(=O)O)ccc1O` [Example 25, 2-heptyloxy-2'-hydroxy-5,5'-bis (3-carboxypropyl) biphenyl] gave an inhibition at 0.02 µg/mL of 20.5% and an inhibition at 0.1 µg/mL of 69.2%.
For `CCCCCCCCOc1ccc(CCCC(=O)O)cc1-c1cc(CCCC(=O)O)ccc1O` [Example 26, 2-octyloxy-2'-hydroxy-5,5'-bis (3-carboxypropyl) biphenyl], in test [1], the inhibition at 0.02 µg/mL was determined as 35.3% and the inhibition at 0.1 µg/mL was determined as 73.1%. The same compound had an inhibition at 1 µg/mL in test [3] of 43.3%.
With `CC(C)CCOc1ccc(CCCC(=O)O)cc1-c1cc(CCCC(=O)O)ccc1O` [Example 27, 2-isopentyloxy-2'-hydroxy-5, 5'-bis (3-carboxypropyl) biphenyl], in test [1], the inhibition at 0.02 µg/mL stood at 23.8% and at 0.1 µg/mL the inhibition was 61.2%.
In test [1], `O=C(O)CCCc1ccc(O)c(-c2cc(CCCC(=O)O)ccc2OCCCCl)c1` [Example 28, 2-(3-chloropropoxy)-2'-hydroxy-5, 5'-bis (3-carboxypropyl) biphenyl] came in with an inhibition at 0.02 µg/mL of 28.8% and an inhibition at 0.1 µg/mL of 71.7%. The inhibition at 1 µg/mL in test [3] was 69%.
